Reference: US20240158406A1, “PIPERAZINE DERIVATIVE AND USE THEREOF IN MEDICINE” (CHENGDU BAIYU PHARMACEUTICAL CO., LTD., priority 2021, published 2024)

Assays:
[1] = Metabolic stability in liver microsome; type: in vitro ADME; details: 0.5 mg/mL CD1 mouse liver microsome, 0.5 μM test compound, NADPH and UDPGA, 37° C.
Method: 0.5 mg/mL CD1 mouse liver microsome solution, 0.5 μM test compound, 1.0 mM reduced nicotinamide adenine dinucleotide phosphate (NADPH), and 1.0 mM uridine diphosphate-A-glucuronic acid (UDPGA) were added to the incubation plate and mixed, and the plate was incubated at 37° C. for 0, 30, 60, 120 min separately. The positive control group was set as 0.5 μM CYP3A4 probe substrate-testosterone and 0.5 μM UGT probe substrate-7-hydroxycoumarin incubated with microsomes for 0 and 120 min in the presence of NADPH and UDPGA; the negative control group (NC) was set as the test substance incubated with microsomes for 0 and 120 min without any coenzyme. After the reaction was terminated by adding pre-cooled methanol at each termination time, the reaction mixture was centrifuged at 4000 rpm for 10 min, the supernatant was taken and the remaining amount of the parent drug in the sample was measured by LC-MS/MS, the results of which are shown in Table 4.

MDCKII-MDR1 cells = experiment: MDCKII-MDR1 cell permeability assay; type: in vitro ADME; details: 1 μM test compound, 2 h
Method: 50 μL of MDCKII-MDR1 cell suspension with a density of 1.56×10^6 cells/mL was seeded into a Transwell well of a 96-well plate, and the plate was cultured in a cell incubator at 37° C. in 5% CO2. […] The medium in Transwell was discarded, and HBSS equilibration solution was added and incubated at 37° C. for 30 min. Subsequently, an apical to basolateral drug transport rate assay was performed by adding 1 μM test compound solution to the Transwell AB side and a blank equilibration solution to the BL side. When the basolateral to apical drug transport rate assay was performed, the operation steps were reversed. Subsequently, the cells were placed in an incubator for 2 h. After the incubation, samples were taken from the basolateral and apical respectively, and after centrifugation, the supernatant was subjected to LC-MS/MS analysis, and the apparent permeability coefficient (Papp) was calculated, the results of which are shown in Table 5.

PARP7 = PARP7 (Homo sapiens (Human), UniProt Q7Z3E1); experiment: Enzymatic biochemical assay of PARP (chemiluminescence detection kit), PARP7; details: read-out: Inhibitory activity against PAPR7 (IC50)
Method: (§1) This assay adopted PARP1, TNKS1, TNKS2, PARP7 and PARP14 chemiluminescence detection kits (BPS, Cat No. 80551/80552/80573/80578/79729/80568) for enzymatic biochemical assay of PARP. The specific scheme was as follows: the 1× histone mixture was added to a 96-well plate at 50 μL per well, and the plate was incubated overnight at 4° C. The next day, after the plate was washed with PBST, 200 μL of blocking buffer per well was added, and the plate was incubated for 90 min. After the plate was washed with PBST again, 5 μL of inhibitor, 20 μL of 1×PARP buffer and 25 μL of […] were added to each well, and the plate was incubated at room temperature for 30 min. After the plate was washed with PBST, 100 μL of Elisa ECL substrate A and B mixture was added to each well, chemiluminescence value was immediately read using a plate reader, and IC50 values were calculated.

PARP1 = PARP1 (Homo sapiens (Human), UniProt P09874); experiment: Enzymatic biochemical assay of PARP (chemiluminescence detection kit), PARP1
Method: as §1

TNKS1 = TNKS1 (Homo sapiens (Human), UniProt O95271); experiment: Enzymatic biochemical assay of PARP (chemiluminescence detection kit), TNKS1
Method: as §1

TNKS2 = TNKS2 (Homo sapiens (Human), UniProt Q9H2K2); experiment: Enzymatic biochemical assay of PARP (chemiluminescence detection kit), TNKS2
Method: as §1

PARP14 = PARP14 (Homo sapiens (Human), UniProt Q460N5); experiment: Enzymatic biochemical assay of PARP (chemiluminescence detection kit), PARP14
Method: as §1

NCI-H1373 cells = experiment: NCI-H1373 cell proliferation inhibition assay; type: cell-based; details: Homo sapiens, NCI-H1373, 144 h; 6 days of incubation, Cell Titer Blue
Method: Human lung adenocarcinoma cells NC-H1373 (ATCC, CRL-5866M) were cultured in a cell incubator at 37° C. and 5% CO2 using RPMI-1640 medium containing 10% FBS and 1% […]. The cells in the logarithmic growth phase were counted by digestion and inoculated in a 96-well plate at 1500 NCI-H1373 per well, and the plate was placed in an incubator overnight. The next day, test compounds were formulated in 10 mM stock solution by using DMSO and 3-fold diluted in gradient from a maximum concentration of 10 μM by using RPMI-1640 medium, and 10 gradient concentrations were set with 2 parallel wells per concentration gradient. After 6 days of incubation, 100 μL of Cell Titer Blue working solution was added to each well and the chemiluminescence value was read in a microplate reader. IC50 was calculated using GraphPad Prism7.0 software.

Sequence of TNKS2 (Q9H2K2 whole entry): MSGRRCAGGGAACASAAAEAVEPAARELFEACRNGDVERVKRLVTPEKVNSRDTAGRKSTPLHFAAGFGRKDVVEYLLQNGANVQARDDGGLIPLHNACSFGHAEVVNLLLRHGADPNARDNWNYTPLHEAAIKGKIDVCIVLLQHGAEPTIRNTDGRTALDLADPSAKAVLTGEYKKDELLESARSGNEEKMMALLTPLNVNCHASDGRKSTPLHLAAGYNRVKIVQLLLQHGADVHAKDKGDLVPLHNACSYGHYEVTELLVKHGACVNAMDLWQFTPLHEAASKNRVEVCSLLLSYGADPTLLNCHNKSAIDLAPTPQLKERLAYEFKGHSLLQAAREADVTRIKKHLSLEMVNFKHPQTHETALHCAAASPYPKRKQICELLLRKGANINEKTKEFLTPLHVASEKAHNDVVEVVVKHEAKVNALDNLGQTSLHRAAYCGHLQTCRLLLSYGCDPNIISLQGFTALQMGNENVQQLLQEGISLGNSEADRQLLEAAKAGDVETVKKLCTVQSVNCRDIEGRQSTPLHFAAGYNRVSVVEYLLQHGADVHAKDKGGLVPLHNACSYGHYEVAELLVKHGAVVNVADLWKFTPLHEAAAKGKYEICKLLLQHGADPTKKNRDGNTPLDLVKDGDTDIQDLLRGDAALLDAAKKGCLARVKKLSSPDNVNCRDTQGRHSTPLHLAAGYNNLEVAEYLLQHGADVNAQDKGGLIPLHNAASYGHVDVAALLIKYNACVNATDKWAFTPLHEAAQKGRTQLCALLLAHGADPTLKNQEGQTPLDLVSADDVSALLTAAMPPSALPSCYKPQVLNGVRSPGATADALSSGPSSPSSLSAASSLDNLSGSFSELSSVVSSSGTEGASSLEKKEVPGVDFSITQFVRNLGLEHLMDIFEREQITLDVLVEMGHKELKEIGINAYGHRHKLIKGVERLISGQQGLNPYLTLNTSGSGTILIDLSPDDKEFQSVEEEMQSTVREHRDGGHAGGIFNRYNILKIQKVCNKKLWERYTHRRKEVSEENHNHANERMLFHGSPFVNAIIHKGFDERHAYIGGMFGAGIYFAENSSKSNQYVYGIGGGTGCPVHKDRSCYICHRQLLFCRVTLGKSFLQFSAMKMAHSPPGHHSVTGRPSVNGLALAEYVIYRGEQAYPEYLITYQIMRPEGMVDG
Sequence of PARP7 (Q7Z3E1 whole entry): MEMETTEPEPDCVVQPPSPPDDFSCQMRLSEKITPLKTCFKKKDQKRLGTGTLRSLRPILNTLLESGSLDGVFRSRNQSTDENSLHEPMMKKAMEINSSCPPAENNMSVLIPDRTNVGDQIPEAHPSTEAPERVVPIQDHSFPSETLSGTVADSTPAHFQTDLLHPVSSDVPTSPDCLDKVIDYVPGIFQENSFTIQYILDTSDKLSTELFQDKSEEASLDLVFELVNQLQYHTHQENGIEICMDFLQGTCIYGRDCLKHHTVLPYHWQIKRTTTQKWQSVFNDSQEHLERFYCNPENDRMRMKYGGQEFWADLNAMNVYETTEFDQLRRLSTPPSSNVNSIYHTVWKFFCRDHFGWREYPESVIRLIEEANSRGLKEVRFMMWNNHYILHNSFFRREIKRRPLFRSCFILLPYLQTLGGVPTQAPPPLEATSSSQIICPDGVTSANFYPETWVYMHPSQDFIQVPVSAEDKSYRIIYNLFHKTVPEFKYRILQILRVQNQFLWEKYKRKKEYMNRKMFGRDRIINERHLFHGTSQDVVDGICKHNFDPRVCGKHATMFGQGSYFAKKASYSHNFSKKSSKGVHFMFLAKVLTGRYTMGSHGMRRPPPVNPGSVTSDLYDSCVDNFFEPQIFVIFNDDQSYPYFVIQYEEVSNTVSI
Sequence of PARP1 (P09874 whole entry): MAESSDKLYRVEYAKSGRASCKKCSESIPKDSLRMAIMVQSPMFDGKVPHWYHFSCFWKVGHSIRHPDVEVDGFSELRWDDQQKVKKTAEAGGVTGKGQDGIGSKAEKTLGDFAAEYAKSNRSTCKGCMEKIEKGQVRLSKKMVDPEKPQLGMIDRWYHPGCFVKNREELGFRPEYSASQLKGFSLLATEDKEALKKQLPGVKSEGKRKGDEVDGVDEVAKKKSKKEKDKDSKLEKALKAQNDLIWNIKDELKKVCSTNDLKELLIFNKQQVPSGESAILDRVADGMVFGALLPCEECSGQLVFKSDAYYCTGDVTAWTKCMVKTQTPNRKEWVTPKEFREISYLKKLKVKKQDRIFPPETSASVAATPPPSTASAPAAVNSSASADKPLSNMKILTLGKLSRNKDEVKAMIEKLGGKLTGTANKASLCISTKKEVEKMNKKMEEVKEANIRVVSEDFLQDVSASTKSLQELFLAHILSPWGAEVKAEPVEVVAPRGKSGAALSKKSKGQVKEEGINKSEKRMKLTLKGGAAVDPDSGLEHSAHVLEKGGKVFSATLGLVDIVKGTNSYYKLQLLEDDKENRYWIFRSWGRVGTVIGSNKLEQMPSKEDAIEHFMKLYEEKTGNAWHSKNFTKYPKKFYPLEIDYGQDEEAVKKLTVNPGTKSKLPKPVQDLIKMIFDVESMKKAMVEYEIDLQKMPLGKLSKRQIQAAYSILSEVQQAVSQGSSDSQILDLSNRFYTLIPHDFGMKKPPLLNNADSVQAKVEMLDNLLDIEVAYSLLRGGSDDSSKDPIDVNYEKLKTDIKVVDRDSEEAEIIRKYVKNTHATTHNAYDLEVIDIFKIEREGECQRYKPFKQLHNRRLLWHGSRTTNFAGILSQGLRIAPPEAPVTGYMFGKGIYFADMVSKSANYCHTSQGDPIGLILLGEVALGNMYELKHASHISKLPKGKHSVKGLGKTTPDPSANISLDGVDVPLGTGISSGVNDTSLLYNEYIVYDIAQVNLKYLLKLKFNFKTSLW
Sequence of TNKS1 (O95271 whole entry): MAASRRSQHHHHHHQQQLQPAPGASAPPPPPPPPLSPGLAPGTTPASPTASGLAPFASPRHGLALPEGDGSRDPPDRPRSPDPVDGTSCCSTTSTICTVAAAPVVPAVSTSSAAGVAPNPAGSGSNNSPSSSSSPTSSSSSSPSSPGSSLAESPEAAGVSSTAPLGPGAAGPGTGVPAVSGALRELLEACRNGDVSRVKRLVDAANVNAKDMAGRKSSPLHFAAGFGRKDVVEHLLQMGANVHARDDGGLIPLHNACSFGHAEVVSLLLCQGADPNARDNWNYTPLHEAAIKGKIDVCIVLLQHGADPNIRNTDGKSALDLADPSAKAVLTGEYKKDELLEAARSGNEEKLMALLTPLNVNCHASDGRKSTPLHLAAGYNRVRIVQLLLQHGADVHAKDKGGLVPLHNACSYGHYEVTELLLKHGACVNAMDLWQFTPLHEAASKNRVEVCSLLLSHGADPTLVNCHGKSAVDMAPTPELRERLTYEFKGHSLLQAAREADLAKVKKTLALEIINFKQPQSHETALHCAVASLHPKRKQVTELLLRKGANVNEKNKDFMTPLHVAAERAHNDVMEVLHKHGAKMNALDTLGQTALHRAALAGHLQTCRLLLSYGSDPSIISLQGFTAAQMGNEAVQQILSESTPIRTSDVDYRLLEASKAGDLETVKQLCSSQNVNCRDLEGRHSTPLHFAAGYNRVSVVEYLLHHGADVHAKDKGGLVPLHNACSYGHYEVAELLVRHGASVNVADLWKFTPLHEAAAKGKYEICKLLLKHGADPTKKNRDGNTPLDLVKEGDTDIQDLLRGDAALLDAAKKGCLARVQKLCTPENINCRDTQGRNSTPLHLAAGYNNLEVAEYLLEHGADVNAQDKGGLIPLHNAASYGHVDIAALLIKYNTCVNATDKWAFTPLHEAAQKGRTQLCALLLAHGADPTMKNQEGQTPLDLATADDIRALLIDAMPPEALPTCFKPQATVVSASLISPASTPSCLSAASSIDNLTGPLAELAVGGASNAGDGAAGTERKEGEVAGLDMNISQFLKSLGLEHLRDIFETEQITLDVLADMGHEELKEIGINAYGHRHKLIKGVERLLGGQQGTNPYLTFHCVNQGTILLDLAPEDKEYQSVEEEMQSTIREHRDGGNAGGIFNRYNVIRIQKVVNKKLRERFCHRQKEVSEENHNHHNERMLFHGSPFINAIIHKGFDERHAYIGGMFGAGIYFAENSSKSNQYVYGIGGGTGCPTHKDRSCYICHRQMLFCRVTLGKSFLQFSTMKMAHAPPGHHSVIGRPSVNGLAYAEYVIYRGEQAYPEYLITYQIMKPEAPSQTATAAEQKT

T1/2 [1] | Papp (A-B) (MDCKII-MDR1 cells; apical to basolateral) | Papp (B-A) (MDCKII-MDR1 cells; basolateral to apical) | SMILES | IC50 (PARP7) | IC50 (PARP1) | IC50 (TNKS1) | IC50 (TNKS2) | IC50 (PARP14) | IC50 (NCI-H1373 cells) | half-life at 0.5 μM ([1]; liver microsomes)
<30 min | 5.16 10-6, cm/s | 49.43 10-6, cm/s | C[C@@H](COCCC(=O)N1CCN(c2ncc(C(F)(F)F)cn2)CC1)Nc1cn[nH]c(=O)c1C(F)(F)F [Comparative example, reference compound] |  |  |  |  |  |  | 
 |  |  | C[C@@H](COCc1cc2n(n1)CCN(c1ncc(C(F)(F)F)cn1)C2)Nc1cn[nH]c(=O)c1C(F)(F)F [Compound 1] | 0.01 to 0.05 µM | > 1 µM | > 10 µM | > 10 µM | > 10 µM | < 0.05 µM | > 30 min
